Assays:
[1] = tested on: intracellular peroxidases in HMCLs; experiment: Intra-cellular peroxidase activity by Amplex Red in HMCLs; type: cell-based, human; conditions: for intracellular H2O2 decomposition mediated by peroxidases: different myeloma cell lines, thalidomide 20 μM, lenalidomide 20 μM, pomalidomide 10 μM, 40 to 60 minutes
Procedure: (§1) After 30 minutes, plates were read for fluorescence at 530 nm excitation and 590 nm emission with plate reader (Biotek Cytation3). For determining intra-cellular peroxidase activity by Amplex Red, cells were washed and mixed with Amplex Red reagent (50 μM) in HBSS buffer and plated 100,000 cells per well into 96 well plate, four wells for each condition. […] The DMSO control included H2O2 (100 μM). […] After specific time periods, the plates were read for fluorescence intensity using plate reader.

Horseradish peroxidase = target: T1, Horseradish peroxidase (Armoracia rusticana, UniProt P00433); experiment: HRP/Amplex Red in-vitro assay; type: biochemical; conditions: 10 μM drug, 5 μM H2O2, 30 minutes
T1 sequence (P00433 31-338 limits assumed): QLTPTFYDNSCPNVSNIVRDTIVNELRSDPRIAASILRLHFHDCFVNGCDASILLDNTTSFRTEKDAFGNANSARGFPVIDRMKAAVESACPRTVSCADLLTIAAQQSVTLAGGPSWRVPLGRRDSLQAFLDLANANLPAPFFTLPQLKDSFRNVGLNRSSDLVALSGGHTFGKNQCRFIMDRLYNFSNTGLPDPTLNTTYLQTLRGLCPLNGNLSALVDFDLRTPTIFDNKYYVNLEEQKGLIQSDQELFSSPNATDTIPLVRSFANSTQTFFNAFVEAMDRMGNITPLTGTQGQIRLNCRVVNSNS
Procedure: as §1

IKZF1 and IKZF3 [2] = experiment: Western blot of IKZF1 and IKZF3 in MM.1S cells; type: cell-based, human; conditions: MM.1S cells, 3 hours (lenalidomide 10 μM, H2O2 100 μM, PX12 20 μM)
Text: (§2) Proteins were transferred to polyvinylidene fluoride membranes (Bio-Rad).

[3] = tested on: OCIMY5-Vector and OCIMY-CRBN cells; experiment: MTT assay in OCIMY5-Vector and OCIMY-CRBN cells; conditions: 72 hours
Procedure: Cell viability was assessed by 3-(4,5-dimethylthiazol-2-yl)-2,5-diphenyltetrazolium bromide (MTT) colorimetric assay. […] The data were normalized to the DMSO-treated group. Each experimental condition was performed in triplicate and repeated at least once. Thalidomide was obtained from Sigma, and pomalidomide was obtained from Selleckchem.
Human CRBN cDNA was obtained from Thermo Scientific and subcloned into a lentiviral expression vector, pCDH-CMV-MCS-EF1-copGFP (System Bioscience). Lentivirus harboring control vector and CRBN cDNA constructs were prepared and used to infect the multiple myeloma (MM) cell line OCIMY5. Infection efficiency was measured by FACScan analysis of GFP expression 3 days after infection. The cells were sorted for GFP expression 14 days after infection.

IKZF1 and IKZF3 [4] = experiment: Western blot of IKZF1 and IKZF3 in OPM2 cells; type: cell-based, human; conditions: PX12 20 μM, within 3 hours
Text: as §2

RPMI-8226 myeloma cells = experiment: Anti-oxidative capacity by FAD and NAD(P)H autofluorescence flow cytometry; type: cell-based, human; conditions: pre-treatment of myeloma cells, then external H2O2
Procedure: HMCLs cells (1 million cells/1 mL PBS) treated or not treated with 100 μM concentration of H2O2 were immediately analyzed for autofluoresnece of FAD (FITC-A channel) and NAD(P)H (UV Blue-A channel) with multicolor flow cytometry (BD LSRFORTESSA). Flowjo histogram normalization was used to overlay untreated versus treated samples.

[5] = tested on: Myeloma cell line harboring CRBN or without CRBN; experiment: Cell survival of myeloma cell line harboring CRBN or without CRBN treated with cofactors; type: cell-based, human; conditions: cofactor alone
Text: (§3) The data were normalized to the DMSO-treated group.

myeloma cells [6] = experiment: MTT assay of dehydroascorbic acid in myeloma cells; type: cell-based, human; conditions: high concentrations
Text: as §3

[7] = tested on: myeloma cell line harboring CRBN and myeloma cell line without CRBN; experiment: Viability of myeloma cell lines with auranofin and bortezomib; type: cell-based, human; conditions: bortezomib in combination with auranofin
PARP = PARP cleavage immunoblot in OPM2-NT and OPM2-shCRBN cells; type: cell-based, human; conditions: OPM2 CRBN-positive cells; bortezomib 2.5 nM 2 days
Text: as §2

OPM2 cells = experiment: Apoptosis assay (Annexin V/propidium iodide FACS) in OPM2 cells; type: cell-based, human; conditions: lenalidomide 10 μM pretreatment two days, bortezomib 2.5 nM 2 days
Procedure: Treated cells were harvested and stained for flow cytometry with Annexin V-fluorescein isothiocyanate and propidium iodide (BD Pharmingen). Stained cells were analyzed with a BD LSRII flow cytometer, and the data were analyzed with BD fluorescence-activated cell sorting (FACs) DIVA software.

thioredoxin reductase = experiment: Thioredoxin reductase inhibition
myeloma cells [8] = experiment: Intracellular H2O2 accumulation in myeloma cells; type: cell-based, human
myeloma cells [9] = experiment: MTT assay of auranofin in myeloma cells; type: cell-based, human
Text: as §3

[10] = OCIMY5-Vector (CRBN deficient) cells
[11] = OCIMY-CRBN (CRBN positive) cells

SMILES: Nc1cccc2c1C(=O)N(C1CCC(=O)NC1=O)C2=O (centres unmarked) [pomalidomide]
- inhibition of intracellular peroxidases compared among IMIDs ([1]; FIG. 1C-E and FIG. 2A): more potentially than thalidomide and lenalidomide
- intracellular H2O2 decomposition mediated by peroxidases [1]: inhibit intracellular H2O2 decomposition
- decomposition of H2O2 by horseradish peroxidase (Amplex Red to resorufin) (Horseradish peroxidase): inhibited

SMILES: CCC(C)SSc1ncc[nH]1 (centres unmarked) [PX12, 1-methylpropyl 2-imidazolyl disulfide]
- IKZF1 and IKZF3 degradation (IKZF1 and IKZF3 [2]): induced IKZF1 and IKZF3 degradation
- cell proliferation (MTT) [3, 10]: inhibited cell proliferation
- cell proliferation (MTT) [3, 11]: inhibited cell proliferation
- IKZF1 and IKZF3 degradation (IKZF1 and IKZF3 [4]): induced IKZF1 and IKZF3 degradation

SMILES: NC(=O)CCCCC1CCSS1 (centres unmarked) [lopoamide]
- anti-oxidative capacity (FADH2 and NAD(P)H oxidation) (RPMI-8226 myeloma cells): decreased myeloma cells anti-oxidative capacity

SMILES: NC(=O)c1ccc[n+]([C@@H]2O[C@H](COP(=O)([O-])OP(=O)(O)OC[C@H]3O[C@@H](n4cnc5c(N)ncnc54)[C@H](OP(=O)(O)O)[C@@H]3O)[C@@H](O)[C@H]2O)c1 [NADP]
- cell survival [5]: induced cell death

SMILES: NC(=O)C1=CN([C@@H]2O[C@H](COP(=O)(O)OP(=O)(O)OC[C@H]3O[C@@H](n4cnc5c(N)ncnc54)[C@H](OP(=O)(O)O)[C@@H]3O)[C@@H](O)[C@H]2O)C=CC1 [NADPH]
- cell survival [5]: induced cell death

SMILES: O=C([O-])CC([S-])C(=O)[O-].[Au+].[Na+].[Na+] (centres unmarked) [ATM, sodium aurothiomalate]
- cell proliferation (MTT) [3, 10]: did not inhibit cell proliferation
- cell proliferation (MTT) [3, 11]: did not inhibit cell proliferation

SMILES: O=C1O[C@H]([C@@H](O)CO)C(=O)C1=O [DHA, Dehydroascorbic acid]
- myeloma cell proliferation (MTT) (myeloma cells [6]): inhibited myeloma cell proliferation

SMILES: NC(=O)C1=CN([C@@H]2O[C@H](COP(=O)(O)OP(=O)(O)OC[C@H]3O[C@@H](n4cnc5c(N)ncnc54)[C@H](O)[C@@H]3O)[C@@H](O)[C@H]2O)C=CC1 [NADH]
- cell survival [5]: induced cell death

SMILES: NC(=O)c1ccc[n+]([C@@H]2O[C@H](COP(=O)([O-])OP(=O)(O)OC[C@H]3O[C@@H](n4cnc5c(N)ncnc54)[C@H](O)[C@@H]3O)[C@@H](O)[C@H]2O)c1 [NAD]
- cell survival [5]: induced cell death

SMILES: O=C(O)CCCC[C@@H]1CCSS1 [lipoic acid]
- anti-oxidative capacity (FADH2 and NAD(P)H oxidation) (RPMI-8226 myeloma cells): decreased myeloma cells anti-oxidative capacity

SMILES: O=C1CCC(N2C(=O)c3ccccc3C2=O)C(=O)N1 (centres unmarked) [thalidomide]
- intracellular H2O2 decomposition mediated by peroxidases [1]: inhibit intracellular H2O2 decomposition
- decomposition of H2O2 by horseradish peroxidase (Amplex Red to resorufin) (Horseradish peroxidase): inhibited

SMILES: CC(C)C[C@H](NC(=O)[C@H](Cc1ccccc1)NC(=O)c1cnccn1)B(O)O [bortezomib]
- interaction with auranofin (percent viability) [7]: synergy
- bortezomib-induced PARP cleavage after lenalidomide pretreatment (PARP): enhanced
- bortezomib-induced apoptosis in cells pretreated with lenalidomide vs not pretreated (OPM2 cells): increased sensitivity

SMILES: CC(=O)OC[C@H]1O[C@@H]([S-])[C@H](OC(C)=O)[C@@H](OC(C)=O)[C@@H]1OC(C)=O.CCP(CC)CC.[Au+] [auranofin]
- potency in inhibiting thioredoxin reductase, compared with lenalidomide (thioredoxin reductase): more potent than lenalidomide
- intracellular H2O2 accumulation (myeloma cells [8]): effective at accumulating intracellular H2O2
- CRBN dependence of inhibition of cancer cell proliferation (myeloma cells [9]): irrespective of CRBN level
- potency in inhibiting cancer cell proliferation, compared with lenalidomide (myeloma cells [9]): more potent than lenalidomide
- cancer cell viability (MTT) (myeloma cells [9]; myeloma cells): reducing cancer cell viability
